# Legend:
# [1] = Inhibition of baker's yeast alpha-glucosidase using p-nitrophenyl-alpha-glucopyranoside as substrate by spectrophotometric analysis; set-up: species or system Saccharomyces cerevisiae
# [2] = Inhibition of saccharomyces cerevisiae alpha-glucosidase using PNPG as substrate preincubated for 2 mins followed by substrate addition for 15 mins by microplate reader analysis
# [3] = Inhibition of saccharomyces cerevisiae alpha-glucosidase using pNPG as substrate preincubated for 15 mins followed by substrate addition
# [4] = Inhibition of saccharomyces cerevisiae alpha-glucosidase using PNP-G as substrate by spectrophotometric analysis
# [5] = Inhibition of recombinant Streptococcus pneumoniae NanB using MUNANA as substrate
# [6] = Inhibition of Bacillus stearothermophilus alpha-glucosidase type IV using p-nitrophenyl-alpha-D-glucopyranoside as substrate preincubated for 15 mins followed by substrate addition and measured after 35 mins by microtiter plate reader analysis; set-up: species or system Geobacillus stearothermophilus
# [7] = Inhibition of baker's yeast alpha-glucosidase using PNPG as substrate preincubated for 10 mins followed by substrate addition and measured after 30 mins by microplate reader analysis; set-up: species or system Saccharomyces cerevisiae
# [8] = Inhibition of saccharomyces cerevisiae alpha-glucosidase using p-nitrophenyl-alpha-D-glucopyranoside as substrate preincubated for 15 mins followed by substrate addition and measured after 20 mins by spectrophotometric analysis
# [9] = Inhibition of baker's yeast alpha-glucosidase using PNP-G as substrate preincubated for 10 mins followed by substrate addition and measured after 20 mins; set-up: species or system Saccharomyces cerevisiae
# [10] = Inhibition of alpha-glucosidase (unknown origin) using p-nitrophenyl-alpha-D-glucopyranoside as substrate preincubated for 10 mins followed by substrate addition and measured after 30 mins
# [11] = Inhibition of beta glucosidase (unknown origin); set-up: species or system Homo sapiens
# [12] = Inhibition of alpha-glucosidase (unknown origin) using PNP glycoside as substrate preincubated for 30 mins followed by substrate addition and measured after 60 mins by spectrophotometric analysis
# [13] = Inhibition of saccharomyces cerevisiae alpha-glucosidase using PNP-G as substrate incubated for 20 mins
# [14] = Inhibition of Bacillus stearothermophilus alpha-glucosidase using PNP-G as substrate incubated for 20 mins; set-up: species or system Geobacillus stearothermophilus
# [15] = Inhibition of rat intestinal maltase
# [16] = Inhibition of alpha-amyloglucosidase (unknown origin) assessed as reduction in conversion of starch to glucose using starch as substrate preincubated with substrate for 20 mins followed by enzyme addition and measured after 30 mins
# Rattus norvegicus = assay: Hypoglycemic activity in Wistar rat assessed as reduction in postprandial blood glucose level at 10 mg/kg, po administered for 10 mins followed by sucrose challenge and measured after 30 mins post oral sucrose challenge; type: functional; set-up: scale not given: the % may be the effect or the level left; details: time 40 min
# [17] = Inhibition of Caldocellum-saccharolyticum […] using 4-nitrophenyl beta-d-glucopyranoside preincubated for 30 to 60 mins followed by substrate addition; set-up: species or system Caldicellulosiruptor saccharolyticus
# [18] = Inhibition of rat intestinal maltase using maltose as substrate incubated for 15 mins by spectometric analysis
# [19] = Inhibition of rat intestinal sucrase using sucrose as substrate incubated for 15 mins by spectometric analysis
# [20] = Inhibition of yeast alpha-glucosidase; set-up: species or system Saccharomyces cerevisiae
# Saccharomyces cerevisiae = assay: Inhibition of baker's yeast alpha-glucosidase at 1 uM using p-nitrophenyl-alpha-D-glucopyranoside as substrate preincubated for 30 mins followed by substrate addition and measured after 5 mins relative to control; details: time 35.0 min
# [21] = Inhibition of almond beta-glucosidase using PNPG as substrate preincubated for 10 mins followed by substrate addition and measured after 20 mins by spectrophotometric analysis; set-up: species or system Prunus dulcis
# Homo sapiens = species: Homo sapiens; assay: Potency index, ratio of acarbose IC50 to test compound IC50 for inhibition of alpha-glucosidase (unknown origin) using PNP glycoside as substrate preincubated for 30 mins followed by substrate addition and measured after 60 mins by spectrophotometric analysis; details: time 90.0 min
# [22] = Inhibition of human alpha-fucosidase
smiles,measurement,setting,value
O=C(NC[C@H]1N[C@H](CO)[C@@H](O)[C@@H]1O)C1Cc2ccccc21 (stereo not given in full),IC50,[1],0.15 µM
same,Ki,[1],0.053 µM
C/C(=C\O)[C@@H]1OC(=O)[C@H]2O[C@@]23[C@@]1(C)CC[C@@H]1[C@@]2(CCC(=O)[C@]13C)COC(=O)C[C@@H]2O,IC50,[2],102 µM
Cc1cccc2nc(-c3ccccc3Cl)[nH]c12,IC50,[3],5 µM
COc1ccc(-c2oc3cc(O[C@H]4O[C@H](CO)[C@@H](O)[C@H](O)[C@H]4O)c(OC)c(O)c3c(=O)c2O)cc1CCC(C)COC(C)=O (stereo not given in full),IC50,[4],66 µM
O=S(=O)(O)CCNCc1cccc(Cl)c1,IC50,[5],39 µM
Cc1cccc2nc(-c3ccccc3F)[nH]c12,IC50,[3],34 µM
COc1cc([C@@H]2c3c(O)cc(O)cc3[C@@H]3[C@H]2CO[C@H]3c2cc(O)c(O)c(O)c2)cc(OC)c1O,IC50,[6],6.5 µM
Cc1cc2nc(-c3ccc(C(=O)N/N=C/c4ccc(O)cc4O)cc3)[nH]c2cc1C,IC50,[7],8 µM
O=[N+]([O-])c1ccc2nc(Cc3ccc(Cl)cc3Cl)n(Cc3nnc(S)o3)c2c1,IC50,[8],27 µM
CCOC(=O)/C=C/c1ccc(OC)cc1 [4-METHOXY ETHYL CINNAMATE],IC50,[9],50 µM
O=C1c2c(Cl)c(Cl)c(Cl)c(Cl)c2C(=O)N1CCCCCCc1ccccc1,IC50,[10],7 µM
O[C@H]1[C@@H](O)Cn2cc(CCc3ccccc3)nc2[C@@H]1O,Ki,[11],0.004 µM
COc1ccc(-c2nc3ccc(Br)cc3[nH]2)c(O)c1,IC50,[12],38 µM
CCCCCCC1(CCCCCC)O[C@H]2Cc3c(O)cc(O)cc3O[C@@H]2c2cc(O)c(O)cc21,IC50,[13],0.9 µM
same,IC50,[14],1.1 µM
O=C1c2c(Cl)c(Cl)c(Cl)c(Cl)c2C(=O)N1Cc1ccccc1,IC50,[10],11 µM
"O=[N+]([O-])c1ccccc1CO[C@@H](CO)[C@H](O)C[S+]1C[C@@H](O)[C@H](O)[C@H]1CO (single isomer, unassigned)",IC50,[15],0.042 µM
COc1ccc(-c2nc3cccc(C)c3[nH]2)c(O)c1,IC50,[3],30 µM
O=C1c2c(Cl)c(Cl)c(Cl)c(Cl)c2C(=O)N1CCCc1ccccc1,IC50,[10],4.5 µM
NNC(=O)Cn1c(Cc2ccc(Cl)cc2Cl)nc2ccc([N+](=O)[O-])cc21,IC50,[8],10 µM
OC[C@@H]1[C@@H](O)[C@H](O)C[S@@+]1C[C@@H](O)[C@@H](O)CO,IC50,[15],1.6 µM
Oc1ccccc1-c1nc2ccc(Br)cc2[nH]1,IC50,[12],38 µM
Cc1cc2nc(-c3ccc(C(=O)N/N=C/c4ccc(O)c(O)c4)cc3)[nH]c2cc1C,IC50,[7],12 µM
Cc1cccc(CNCCS(=O)(=O)O)c1,IC50,[5],57 µM
Cc1cc2nc(-c3ccc(C(=O)N/N=C/c4cc(O)ccc4O)cc3)[nH]c2cc1C,IC50,[7],8 µM
O=[N+]([O-])c1ccc2nc(Cc3ccc(Cl)cc3Cl)n(Cc3nnc(S)n3-c3ccccc3)c2c1,IC50,[8],40 µM
COc1ccc(O)cc1/C=N/NC(=O)c1ccc(-c2nc3cc(C)c(C)cc3[nH]2)cc1,IC50,[7],8 µM
Oc1ccc(/C=C/c2cc(O)cc(O)c2)cc1 [RESVERATROL],IC50,[6],24 µM
O=C1NC(=O)C(Cc2ccc(Nc3nc4ccccc4n3Cc3ccccc3)cc2)S1 (stereo not given),IC50,[16],4 µM
O=C1c2c(Cl)c(Cl)c(Cl)c(Cl)c2C(=O)N1CCCCCc1ccccc1,IC50,[10],3.5 µM
CCCCOc1ccc(-c2nc3ccc(Br)cc3[nH]2)cc1,IC50,[12],25 µM
O=C1NC(=O)C(Cc2ccc(CNc3nc4ccccc4n3Cc3ccccc3)cc2)S1 (stereo not given),IC50,[16],5 µM
CCCCC1(CCCC)O[C@H]2Cc3c(O)cc(O)cc3O[C@@H]2c2cc(O)c(O)cc21,IC50,[13],2.1 µM
COc1cc([C@@H]2c3c(O)cc(O)cc3[C@@H]3[C@H]2CO[C@H]3c2ccc(O)c(O)c2)cc(OC)c1O,IC50,[6],11 µM
same,Activity,Rattus norvegicus,10.2%
O=C1c2c(Cl)c(Cl)c(Cl)c(Cl)c2C(=O)N1CCCCc1ccccc1,IC50,[10],2 µM
COC(=O)/C=C/c1ccc(OCC=C(C)C)c(OC)c1,IC50,[2],98 µM
Cn1c(Nc2ccc(CC3SC(=O)NC3=O)cc2)nc2ccccc21 (stereo not given),IC50,[16],9 µM
OC[C@@H]1[C@@H](O)[C@H](O)[C@@H](O)c2nc(CCc3ccccc3)cn21,Ki,[17],0.00011 µM
CC(=O)NC[C@H]1N[C@H](CO)[C@@H](O)[C@@H]1O,IC50,[1],280 µM
COc1ccc(/C=N/NC(=O)c2ccc(-c3nc4cc(C)c(C)cc4[nH]3)cc2)c(O)c1,IC50,[7],8 µM
Cn1c(NCc2ccc(CC3SC(=O)NC3=O)cc2)nc2ccccc21 (stereo not given),IC50,[16],9 µM
Cc1cc2nc(-c3ccc(C(=O)N/N=C/c4cc(O)c(O)c(O)c4)cc3)[nH]c2cc1C,IC50,[7],8 µM
Oc1ccc(/C=C/c2cc(O)cc3c2[C@H](c2cc(O)cc(O)c2)[C@@H](c2ccc(O)c(O)c2)O3)cc1 [SCIRPUSIN A],IC50,[6],8.3 µM
OC[C@@H]1[C@@H](O)[C@H](O)[C@@H](O)c2nccn21,Ki,[17],0.02 µM
Oc1cc(O)c2c(c1)O[C@H](c1ccc(O)c(O)c1)[C@@H](O)C2 [CIANIDANOL],IC50,[18],1350 µM
same,IC50,[19],2490 µM
OC[C@H]1OC(O)[C@H](O)[C@@H](O)[C@@H]1O (stereo not given in full) [DEXTROSE],IC50,[20],2.6 µM
O=c1c(-c2ccc(O)cc2)coc2cc(O)cc(O)c12 [GENISTEIN],IC50,[20],10.4 µM
C[C@H]1O[C@H](O[C@H]2[C@H](O)[C@@H](O)[C@@H](O[C@H]3[C@H](O)[C@@H](O)C(O)O[C@@H]3CO)O[C@@H]2CO)[C@H](O)[C@@H](O)[C@@H]1N[C@H]1C=C(CO)[C@@H](O)[C@H](O)[C@H]1O (stereo not given in full) [ACARBOSE],inhibition,Saccharomyces cerevisiae,56.5%
same,IC50,[16],15 µM
same,IC50,[12],38 µM
O[C@@H]1[C@H](O)Cn2c(nc3ccccc32)[C@@H]1O,IC50,[21],5 µM
COc1ccc(O)c(-c2nc3cccc(C)c3[nH]2)c1,IC50,[3],45 µM
COc1ccc(/C=C/C(=O)O)cc1 [4-METHOXYCINNAMIC ACID],IC50,[9],44 µM
Oc1cc(O)cc(/C=C/c2ccc(O)c(O)c2)c1 [PICEATANNOL],IC50,[6],23 µM
Cc1cccc2nc(-c3ccccc3[N+](=O)[O-])[nH]c12,IC50,[3],45 µM
Cc1cc2nc(-c3ccc(C(=O)N/N=C/c4cccc(O)c4O)cc3)[nH]c2cc1C,IC50,[7],8 µM
O=C1c2c(Cl)c(Cl)c(Cl)c(Cl)c2C(=O)N1CCc1ccccc1,IC50,[10],6 µM
Brc1cccc(-c2nc3ccc(Br)cc3[nH]2)c1,IC50,[12],21 µM
Oc1ccc(-c2nc3ccc(Br)cc3[nH]2)cc1,IC50,[12],8 µM
same,Ratio IC50,Homo sapiens,5
CC1(C)O[C@H]2Cc3c(O)cc(O)cc3O[C@@H]2c2cc(O)c(O)cc21,IC50,[13],1.2 µM
same,IC50,[14],0.7 µM
Oc1cc(O)cc(/C=C/c2cc(O)c(O)c3c2[C@H](c2cc(O)cc(O)c2)[C@@H](c2cc(O)c(O)c(O)c2)O3)c1,IC50,[6],4.9 µM
COc1cc2ccc(=O)oc2cc1O [SCOPOLETIN],IC50,[2],4.6 µM
C/C=C(\C)C(=O)NCCc1ccc(OCC=C(C)C)cc1,IC50,[2],195 µM
Oc1cc(O)cc(/C=C/c2cc(O)c(O)c(O)c2)c1,IC50,[6],19 µM
same,Activity,Rattus norvegicus,12.1%
C[C@@H]1N[C@H](CNC(=O)CCc2c[nH]c3ccccc23)[C@@H](O)[C@H](O)[C@@H]1O,Ki,[22],0.000105 µM
O[C@H]1[C@@H](O)Cn2ccnc2[C@@H]1O,Ki,[11],0.001 µM
Cc1cccc2nc(-c3ccc(O)c(O)c3)[nH]c12,IC50,[3],25 µM
CC(=O)NC[C@H]1N[C@@H](C)[C@@H](O)[C@@H](O)[C@@H]1O,Ki,[22],0.00447 µM
Cc1cccc2nc(-c3ccccc3O)[nH]c12,IC50,[3],16 µM

# From ChEMBL document CHEMBL5126544, “Recent results from non-basic glycosidase inhibitors: How structural diversity can inform general strategies for improving inhibition potency” (Eur J Med Chem, 2022)
